The target of the assay is T1, p53-Mdm2 interaction (N-terminal domain of Mdm2 protein, amino acids 1-111) (Homo sapiens, UniProt Q00987).
T1 construct: N-terminal domain of Mdm2 protein (amino acids 1-111)
The experiment in a line: Fluorescence polarization (FP) binding assay of p53-Mdm2 interaction. Conditions: FP assay, 130 nM Mdm2, FAM-labelled p53 peptide; Ki transformed from IC50 using Kenakin equation. The protocol: The inhibition of p53-Mdm2 interaction was measured using a fluorescence polarization (FP) binding assay. FP measures the rotational movement of molecules in a homogenous suspension. For this assay, N-terminal domain of Mdm2 protein (amino acids 1-111) is combined with a fluorescein-labelled (FAM) peptide derived from p53 trans-activation domain. Upon excitation of the fluorescent ligand with linearly polarized light, […]. If the peptide is bound by Mdm2, rotation will slow down and the perpendicular component will decrease. Disruption of the formation of the peptide-Mdm2 complex due to an inhibitor molecule binding to the p53 binding site of Mdm2 results in faster rotation of the peptide.
Fluorescence polarization experiments were read on Tecan Infinite M1000 reader with the 470 nm excitation and 520 nm emission filters for fluorescein. The fluorescence polarization was measured in black 96-well plates (Corning, CLS3991) in room temperature. Purity of Mdm2 was controlled at >95%. Reaction buffer was optimized by adding 5 mM DTT and 0.1% zwitterionic detergent CHAPS to reduce effect of nonspecific interactions.
The test was performed by combining successive dilution of compounds diluted in dimethyl sulfoxide (DMSO, 5% final concentration) with 130 nM Mdm2 in reaction buffer (PBS, 0.1% CHAPS, 5 mM DTT (dithiothreitol)). After 15 minutes of incubation in room temperature […] FAM-labelled peptide was added. Final reading was performed after 90 minutes of incubation. Dose-dependent binding curves and IC50 values were calculated using GraphPad Prism5 and next transformed to Ki values using Kenakin equation.
In general terms: In fluorescence polarisation assays a small probe gives low polarisation when free and higher when bound to something large.

T1 sequence (Q00987 1-111): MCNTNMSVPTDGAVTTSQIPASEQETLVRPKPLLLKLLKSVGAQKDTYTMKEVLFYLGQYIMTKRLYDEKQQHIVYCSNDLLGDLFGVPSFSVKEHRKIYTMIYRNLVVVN

The Ki is a dissociation constant, usually derived from enzyme kinetics or from competition with a known ligand. Take `CC1(C(=O)C2=C(O)C(=O)N(c3cc(Cl)ccc3F)C23C(=O)Nc2cc(Cl)ccc23)CC1` (stereo not drawn) [Compound 1, 6-chloro-1′-(5-chloro-2-fluorophenyl)-4′-hydroxy-3′-(1-methylcyclopropane-carbonyl)-1,1′,2,5′-tetrahydrospiro[indole-3,2′-pyrrole]-2,5′-dione]: the Ki is 354 nM. Under `Cc1ccc(Cl)cc1N1C(=O)C(O)=C(C(=O)C2(C)CC2)C12C(=O)Nc1cc(Cl)ccc12` (stereo not drawn) [Compound 2, 6-chloro-1′-(5-chloro-2-methylphenyl)-4′-hydroxy-3′-(1-methylcyclopropane-carbonyl)-1,1′,2,5′-tetrahydrospiro[indole-3,2′-pyrrole]-2,5′-dione] stands 122 nM; under `O=C(C1=C(O)C(=O)N(c2cccc(Cl)c2)C12C(=O)Nc1cc(Cl)ccc12)c1ccccc1` (stereo not drawn) [Compound 3, 3′-benzoyl-6-chloro-1′-(3-chlorophenyl)-4′-hydroxy-1,1′,2,5′-tetrahydrospiro[indole-3,2′-pyrrole]-2,5′-dione], 51 nM. Under `CC1(C(=O)C2=C(O)C(=O)N(c3cccc(Cl)c3)C23C(=O)Nc2cc(Cl)ccc23)CC1` (stereo not drawn) [Compound 5, 6-chloro-1′-(3-chlorophenyl)-4′-hydroxy-3′-(1-methylcyclopropanecarbonyl)-1,1′,2,5′-tetrahydrospiro[indole-3,2′-pyrrole]-2,5′-dione] stands 194 nM; under `CC(C)(C)C(=O)C1=C(O)C(=O)N(c2cccc(Cl)c2)C12C(=O)Nc1cc(Cl)ccc12` (stereo not drawn) [Compound 6, 6-chloro-1′-(3-chlorophenyl)-3′-(2,2-tert-butanoyl)-4′-hydroxy-1,1′,2,5′-tetrahydrospiro[indole-3,2′-pyrrole]-2,5′-dione], 102 nM. Under `COc1ccc(Cl)cc1N1C(=O)C(O)=C(C(=O)C2(C)CC2)C12C(=O)Nc1cc(Cl)ccc12` (stereo not drawn) [Compound 7, 6-chloro-1′-(5-chloro-2-methoxyphenyl)-4′-hydroxy-3′-(1-methylcyclopropane-carbonyl)-1,1′,2,5′-tetrahydrospiro[indole-3,2′-pyrrole]-2,5′-dione] stands 700 nM; under `Cc1ccc(Cl)cc1N1C(=O)C(O)=C(C(=O)C(C)C)C12C(=O)Nc1cc(Cl)ccc12` (stereo not drawn) [Compound 8, 6-chloro-1′-(5-chloro-2-methylphenyl)-4′-hydroxy-3′-(iso-propanoyl)-1,1′,2,5′-tetrahydrospiro[indole-3,2′-pyrrole]-2,5′-dione], 120 nM. In the case of `CC(C)C(=O)C1=C(O)C(=O)N(c2cc(Cl)ccc2O)C12C(=O)Nc1cc(Cl)ccc12` (stereo not drawn) [Compound 9, 6-chloro-1′-(5-chloro-2-hydroxyphenyl)-4′-hydroxy-3′-(iso-propanoyl)-1,1′,2,5′-tetrahydrospiro[indole-3,2′-pyrrole]-2,5′-dione], the Ki came out at 268 nM. Under `COc1ccc(Cl)cc1N1C(=O)C(O)=C(C(=O)C(C)C)C12C(=O)Nc1cc(Cl)ccc12` (stereo not drawn) [Compound 10, 6-chloro-1′-(5-chloro-2-methoxyphenyl)-4′-hydroxy-3′-(iso-propanoyl)-1,1′,2,5′-tetrahydrospiro[indole-3,2′-pyrrole]-2,5′-dione] stands 610 nM. Under `CC(C)OCC(C)(C)C(=O)C1=C(O)C(=O)N(c2cccc(Cl)c2)C12C(=O)Nc1cc(Cl)ccc12` (stereo not drawn) [Compound 13, 6-chloro-1′-(3-chlorophenyl)-3′-[2,2-dimethyl-3-(propan-2-yloxy)propanoyl]-4′-hydroxy-1,1′,2,5′-tetrahydrospiro[indole-3,2′-pyrrole]-2,5′-dione] stands 196 nM; under `CCOC(=O)CNC1=C(C(=O)C2(C)CC2)C2(C(=O)Nc3cc(Cl)ccc32)N(c2cccc(Cl)c2)C1=O` (stereo not drawn) [Compound 15, ethyl 2-{[6-chloro-1′-(3-chlorophenyl)-3′-(1-methylcyclopropanecarbonyl)-2,5′-dioxo-1,1′,2,5′-tetrahydrospiro[indole-3,2′-pyrrole]-4′-yl]amino}acetate], 349 nM; under `CCOC(=O)/C=C/C(=O)Nc1cccc(C(=O)C2=C(O)C(=O)N(c3cccc(Cl)c3)C23C(=O)Nc2cc(Cl)ccc23)c1` (stereo not drawn) [Compound 17, ethyl (2E)-3-[(3-{[6-chloro-1′-(3-chloro-phenyl)-4′-hydroxy-2,5′-dioxo-1,1′,2,5′-tetrahydrospiro[indole-3,2′-pyrrole]-3′-yl]carbonyl}phenyl)carbamoyl]prop-2-enoate], 57 nM. The compound `COc1ccccc1-n1nc(C(C)C)c2c1C(=O)N(c1cc(Cl)ccc1C)C21C(=O)Nc2cc(Cl)ccc21` (stereo not drawn) [Compound 32, 6-chloro-5′-(5-chloro-2-methylphenyl)-1′-(2-methoxyphenyl)-3′-(propan-2-yl)-1,2,5′,6′-tetrahydro-1′H-spiro[indole-3,4′-pyrrolo[3,4-c]pyrazole]-2,6′-dione] yielded a Ki of 1390 nM. Under `CC(C)(C)CN1C(=O)C(O)=C(c2cccc(Cl)c2)C12C(=O)Nc1cc(Cl)ccc12` (stereo not drawn) [Compound 36, 6-chloro-3′-(3-chlorophenyl)-1′-(2,2-dimethylpropyl)-4′-hydroxy-1,1′,2,5′-tetrahydrospiro[indole-3,2′-pyrrole]-2,5′-dione] stands 295 nM; under `O=C1C(O)=C(c2cccc(Cl)c2)C2(C(=O)Nc3cc(Cl)ccc32)N1c1ccccc1` (stereo not drawn) [Compound 37, 6-chloro-3′-(3-chlorophenyl)-4′-hydroxy-1′-phenyl-1,1′,2,5′-tetrahydrospiro[indole-3,2′-pyrrole]-2,5′-dione], 190 nM.

For `O=C1C(O)=C(c2ccccc2)C2(C(=O)Nc3ccc(Cl)cc32)N1c1cccc(Cl)c1` (stereo not drawn) [Compound 38, 5-chloro-1′-(3-chlorophenyl)-4′-hydroxy-3′-phenyl-1,1′,2,5′-tetrahydrospiro[indole-3,2′-pyrrole]-2,5′-dione], the affinity corresponds to a Ki of 550 nM.

In turn, `O=C1C(O)=C(c2ccccc2)C2(C(=O)Nc3ccccc32)N1c1cccc(Cl)c1` (stereo not drawn) [Compound 39, 1′-(3-chlorophenyl)-4′-hydroxy-3′-phenyl-1,1′,2,5′-tetrahydrospiro[indole-3,2′-pyrrole]-2,5′-dione] displayed an inhibitory constant (Ki) of 750 nM. The compound `O=C1C(O)=C(c2ccccc2)C2(C(=O)Nc3cc(F)ccc32)N1c1cccc(Cl)c1` (stereo not drawn) [Compound 42, 1′-(3-chlorophenyl)-6-fluoro-4′-hydroxy-3′-phenyl-1,1′,2,5′-tetrahydrospiro[indole-3,2′-pyrrole]-2,5′-dione] returned a Ki of 90 nM.

In turn, `O=C(O)CNC1=C(c2ccccc2)C2(C(=O)Nc3cc(Cl)ccc32)N(c2cccc(Cl)c2)C1=O` (stereo not drawn) [Compound 49, 2-{[6-chloro-1′-(3-chlorophenyl)-2,5′-dioxo-3′-phenyl-1,1′,2,5′-tetrahydrospiro [indole-3,2′-pyrrole]-4′-yl]amino}acetic acid] displayed a Ki of 38 nM. `O=C(O)CSC1=C(c2ccccc2)C2(C(=O)Nc3cc(Cl)ccc32)N(c2cccc(Cl)c2)C1=O` (stereo not drawn) [Compound 51, 2-[6-chloro-1′-(3-chlorophenyl)-2,5′-dioxo-3′-phenyl-1,1′,2,5′-tetrahydrospiro [indole-3,2′-pyrrole]-4′-ylsulfanyl]acetic acid] registered a Ki of 130 nM. The value for `O=C1C(O)=C(Sc2ccc(Cl)cc2)C2(C(=O)Nc3cc(Cl)ccc32)N1c1cccc(Cl)c1` (stereo not drawn) [Compound 54, 6-chloro-1′-(3-chlorophenyl)-3′-[(4-chlorophenyl)sulfanyl]-4′-hydroxy-1,1′,2,5′-tetrahydrospiro[indole-3,2′-pyrrole]-2,5′-dione] was 123 nM.

The values are drawn from US20170129903A1, “COMPOUNDS COMPRISING 1,1a,2,5a-TETRAHYDROSPIRO[INDOLE-3,2a-PYRROLE]-2,5a-DIONE SYSTEM AS INHIBITORS P53-MDM2 PROTEIN-PROTEIN INTERACTION” (ADAMED SP. Z O.O., priority 2014, published 2017).
